According to patent US20220363665A1, “QUINOLINE COMPOUNDS FOR THE TREATMENT OF AUTOIMMUNE DISEASE” (Hoffmann-La Roche Inc., priority 2019, published 2022):

How the values were obtained:
Assay type in all cases: in vitro ADME
[1] = Human microsome stability assay; conditions: 1 μM test compound, 0.5 mg/mL protein
Procedure: The human microsomal stability assay is used for early assessment of metabolic stability of a test compound in human liver microsomes.
Human liver microsomes (Cat. NO.: 452117, Corning, USA; Cat. NO.: H2610, Xenotech, USA) were preincubated with test compound for 10 minutes at 37° C. in 100 mM potassium phosphate buffer, pH 7.4. The reactions were initiated by adding NADPH regenerating system. The final incubation mixtures contained 1 μM test compound, 0.5 mg/mL liver microsomal protein, 1 mM MgCl2, 1 mM NADP, 1 unit/mL isocitric dehydrogenase and 6 mM isocitric acid in 100 mM potassium phosphate buffer, pH 7.4. After incubation times of 0, 3, 6, 9, 15 and 30 minutes at 37° C., 300 μL of cold ACN (including internal standard) was added to 100 μL incubation mixture to terminate the reaction. Following precipitation and centrifugation, the amount of compound remaining in the samples were determined by LC-MS/MS. Controls of no NADPH regenerating system at zero and 30 minutes were also prepared and analyzed. The results were categorized as: low (<7.0 mL/min/kg), medium (7.0˜16.2 mL/min/kg) and high (16.2-23.2 mL/min/kg).

CYP2D6 = target: T1, CYP2D6 (Homo sapiens, UniProt P10635); test: CYP inhibition assay in human liver microsome, CYP2D6; conditions: HLM, dextromethorphan substrate; for inhibition at 10 min, 10 µM: human, liver microsomes, probe dextromethorphan, read-out: CYP inhibition % @10 uM (2D6)
T1 construct: tissue BD-Gentest 452117; host or cells: human liver microsomes
Procedure: (§1) This is a high throughput screening assay used for assessment of reversible inhibition of CYP2C9, CYP2D6, and CYP3A4 activity of test compounds in human liver microsome (HLM) in early discovery stage.
(§2) 10 mM DMSO stock solutions of test compounds were diluted in DMSO to generate 2 mM intermediate stock solution. 250 nL of intermediate stock solution were transferred in duplicate into 3 separate 384 well microtitre plates (assay-ready plates). A mixture of HLM and each substrate was made up. 45 μL of HLM substrate mix was then transferred to each well of an assay ready plate and mixed. The negative (solvent) and positive controls (standard inhibitor for each CYP) were included in each assay ready plate. The assay ready plate was warmed to 37° C. in an incubator over 10 minutes. 5 μL pre-warmed NADPH regenerating system was added to each incubation well to start the reaction. Final incubation volume was 50 μL. The assay plate then was placed back in the 37° C. incubator. After 5 minutes incubation (10 minutes for CYP2D6), incubates were quenched by addition of 50 μL quench reagent containing internal standards (400 ng/mL 13C6-4′-OH-Diclofenac, 20 ng/mL D3-Dextrorphan and 20 ng/mL D4-1′OH-Midazolam in acetonitrile). The supernatants were collected for RapidFire/MS/MS analysis.
(§3) RapidFire online solid phase extraction/sample injection system (Agilent) coupled with API4000 triple quadrupole mass spectrometer (AB Sciex) were used for sample analysis. The mobile phase composed of acetonitrile and water supplemented with 0.1% formic acid. A C4 solid phase extraction cartridge is used for sample separation. MS detection is achieved in positive ion MRM mode.
(§4) Peak areas for substrate, metabolite and internal standard are determined using the
(§5) RapidFire integrator software (version 3.6.12009.12296). Peak area ratios (PAR) of metabolite and internal standard (stable-labelled metabolite) are then calculated. The measurement window for each experiment is then defined:
(§6) PAR (0% activity)=average PAR for all incubations containing concentrated inhibitor;
(§7) Par (100% activity)=average PAR for all incubations containing no inhibitor (DMSO controls);
(§8) % Activity (test inhibitor) =[PAR(test inhibitor)-PAR(0% activity)][PAR(100% activity)-PAR(0% activity)];
(§9) % Inhibition (test inhibitor)=100-% Activity (test inhibitor).
(§10) Percentage inhibition data are then reported, in duplicate, for the 3 CYP enzymes.

CYP3A4 = target: T2, CYP3A4 (Homo sapiens, UniProt P08684); test: CYP inhibition assay in human liver microsome, CYP3A4; conditions: HLM, midazolam substrate; for inhibition at 5 min, 10 µM: human, liver microsomes, probe midazolam, read-out: CYP inhibition % @10 uM (3A4)
T2 construct: tissue BD-Gentest 452117; host or cells: human liver microsomes
Procedure: as §1, §2, §3, §4, §5, §6, §7, §8, §9, §10

T1 sequence (P10635 whole entry): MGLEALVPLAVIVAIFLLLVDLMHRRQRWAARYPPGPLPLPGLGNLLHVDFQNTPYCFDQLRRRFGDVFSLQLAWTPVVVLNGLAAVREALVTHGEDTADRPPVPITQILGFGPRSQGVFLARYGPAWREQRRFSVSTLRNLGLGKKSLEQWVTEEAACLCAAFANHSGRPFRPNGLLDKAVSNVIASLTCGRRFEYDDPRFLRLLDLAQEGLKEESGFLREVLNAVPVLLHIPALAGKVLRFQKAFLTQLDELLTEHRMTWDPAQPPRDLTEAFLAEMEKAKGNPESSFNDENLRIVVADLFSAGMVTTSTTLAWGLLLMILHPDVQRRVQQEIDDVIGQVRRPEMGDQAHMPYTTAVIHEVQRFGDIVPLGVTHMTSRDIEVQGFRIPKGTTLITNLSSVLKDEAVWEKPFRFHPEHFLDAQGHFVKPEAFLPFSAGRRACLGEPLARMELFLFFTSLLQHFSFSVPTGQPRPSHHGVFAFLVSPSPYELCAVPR
T2 sequence (P08684 whole entry): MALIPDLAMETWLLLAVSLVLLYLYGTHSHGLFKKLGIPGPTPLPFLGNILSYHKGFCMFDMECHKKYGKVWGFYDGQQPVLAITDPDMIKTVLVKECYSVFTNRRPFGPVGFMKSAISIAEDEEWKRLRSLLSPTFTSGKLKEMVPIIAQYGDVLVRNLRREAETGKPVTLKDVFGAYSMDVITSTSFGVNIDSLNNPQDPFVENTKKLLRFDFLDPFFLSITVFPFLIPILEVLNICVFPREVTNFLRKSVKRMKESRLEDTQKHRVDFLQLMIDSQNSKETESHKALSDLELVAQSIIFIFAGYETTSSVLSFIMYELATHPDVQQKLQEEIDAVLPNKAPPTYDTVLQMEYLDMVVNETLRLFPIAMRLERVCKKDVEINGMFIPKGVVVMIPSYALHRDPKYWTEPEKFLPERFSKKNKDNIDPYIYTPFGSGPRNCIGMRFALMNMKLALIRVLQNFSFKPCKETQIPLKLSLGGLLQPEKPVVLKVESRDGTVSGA

| Compound | clearance in human liver microsomes [1] | inhibition at 10 min, 10 µM (CYP2D6) | inhibition at 5 min, 10 µM (CYP3A4) | CYP inhibition % @10 uM (3A4) (CYP3A4; 10 µM) | CYP inhibition % @10 uM (2D6) (CYP2D6) |
| --- | --- | --- | --- | --- | --- |
| C[C@@H]1CN(c2ccc(C(F)(F)F)c3ncccc23)C[C@H](C(=O)NC2C3CCC2CNC3)O1 (stereo partly drawn) [Example 31, (2R,6R)-N-(3-azabicyclo[3.2.1]octan-8-yl)-6-methyl-4-[8-(trifluoromethyl)-5-quinolyl]morpholine-2-carboxamide] | 0.369 L/h/kg | 2% | -29% |  |  |
| Cc1ccc(N2C[C@@H](C)O[C@@H](C(=O)NC3CCN(C)CC3)C2)c2cccnc12 [Example 16, (2R,6R)-6-methyl-N-(1-methyl-4-piperidyl)-4-(8-methyl-5-quinolyl)morpholine-2-carboxamide] | 0.369 L/h/kg | 5% | 2% |  |  |
| C[C@@H]1CN(c2ccc(Cl)c3ncccc23)C[C@H](C(=O)NC2CCCNCC2)O1 (stereo partly drawn) [Example 25, (2R,6R)-N-(azepan-4-yl)-4-(8-chloro-5-quinolyl)-6-methyl-morpholine-2-carboxamide] | 0.43 L/h/kg | 0% | 2% |  |  |
| C[C@@H]1CN(c2ccc(C(F)(F)F)c3ncccc23)C[C@H](C(=O)NCC(C)(C)N)O1 [Example 6, (2R,6R)-N-(2-amino-2-methyl-propyl)-6-methyl-4-[8-(trifluoromethyl)-5-quinolyl]morpholine-2-carboxamide] | 0.369 L/h/kg | 13% | -10% |  |  |
| C[C@@H]1CN(c2ccc(I)c3ncccc23)C[C@H](C(=O)NC2CCN(C)CC2)O1 [Example 38, (2R,6R)-4-(8-iodo-5-quinolyl)-6-methyl-N-(1-methyl-4-piperidyl)morpholine-2-carboxamide] | 0.422 L/h/kg | -1% | -2% |  |  |
| C[C@H]1C[C@@H](N)CN(c2ccc(Cl)c3ncccc23)C1 [Example 23, (3R,5S)-1-(8-chloro-5-quinolyl)-5-methyl-piperidin-3-amine] | 0.369 L/h/kg | 35% |  |  |  |
| C[C@@H]1CN(c2ccc(C(F)(F)F)c3ncccc23)C[C@H](C(=O)N2CCC(N)C2)O1 (stereo partly drawn) [Example 10, (3-aminopyrrolidin-1-yl)-[(2R,6R)-6-methyl-4-[8-(trifluoromethyl)-5-quinolyl]morpholin-2-yl]methanone] | 0.369 L/h/kg | 26% | 10% |  |  |
| C[C@@H]1CN(c2ccc(C(F)(F)F)c3ncccc23)C[C@H](C(=O)NC2CC3CCCC(C2)N3)O1 (single isomer, unassigned) [Example 34B] | 0.37 L/h/kg |  | -28% |  | −10% |
| Cc1ccc(N2C[C@@H](C)O[C@@H](C(=O)NCC3CN(C)CCO3)C2)c2cccnc12 (stereo partly drawn) [Example 17, (2R,6R)-6-methyl-N-[(4-methylmorpholin-2-yl)methyl]-4-(8-methyl-5-quinolyl)morpholine-2-carboxamide] | 0.369 L/h/kg | 3% | -5% |  |  |
| C[C@@H]1CN(c2ccc(C(F)(F)F)c3ncccc23)C[C@H](C(=O)N2CCC(N)CC2)O1 [Example 12, (4-amino-1-piperidyl)-[(2R,6R)-6-methyl-4-[8-(trifluoromethyl)-5-quinolyl]morpholin-2-yl]methanone] | 0.369 L/h/kg | 7% |  |  |  |
| C[C@@H]1CN(c2ccc(C(F)(F)F)c3ncccc23)C[C@H](C(=O)NC2CCCNCC2)O1 (stereo partly drawn) [Example 8, (2R,6R)-N-(azepan-4-yl)-6-methyl-4-[8-(trifluoromethyl)-5-quinolyl]morpholine-2-carboxamide] | 0.369 L/h/kg | 10% | -34% |  |  |
| C[C@@H]1CN(c2ccc(C(F)(F)F)c3ncccc23)C[C@H](C(=O)NC2CC3CCCC(C2)N3)O1 (single isomer, unassigned) [Example 34A] | 0.374 L/h/kg |  |  |  | 3% |
| C[C@@H]1CN(c2ccc(C(F)(F)F)c3ncccc23)C[C@H](C(=O)NC[C@@H]2C[C@@H](F)CN2)O1 [Example 27, (2R,6R)-N-[[(2S,4R)-4-fluoropyrrolidin-2-yl]methyl]-6-methyl-4-[8-(trifluoromethyl)-5-quinolyl]morpholine-2-carboxamide] | 0.369 L/h/kg | 6% | -2% |  |  |
| C[C@@H]1CN(c2ccc(Cl)c3ncccc23)C[C@H](C(=O)NCC2CN(C)CCO2)O1 (stereo partly drawn) [Example 26, (2R,6R)-4-(8-chloro-5-quinolyl)-6-methyl-N-[(4-methylmorpholin-2-yl)methyl]morpholine-2-carboxamide] | 0.369 L/h/kg | 3% | -5% |  |  |
| C[C@@H]1CN(c2ccc(C(F)(F)F)c3ncccc23)C[C@H](C(=O)NC2CCN(C)CC2)O1 [Example 5, (2R,6R)-6-methyl-N-(1-methyl-4-piperidyl)-4-[8-(trifluoromethyl)-5-quinolyl]morpholine-2-carboxamide] | 0.369 L/h/kg | 16% | -13% |  |  |

Now from value to compound, other results behind:

| clearance in human liver microsomes [1] | inhibition at 10 min, 10 µM (CYP2D6) | inhibition at 5 min, 10 µM (CYP3A4) | CYP inhibition % @10 uM (3A4) (CYP3A4; 10 µM) | Compound | CYP inhibition % @10 uM (2D6) (CYP2D6) |
| --- | --- | --- | --- | --- | --- |
| 0.369 L/h/kg | 9% | 5% |  | C[C@@H]1CN(c2ccc(C(F)(F)F)c3ncccc23)C[C@H](C(=O)N[C@@H]2CNC[C@@H]2F)O1 (single isomer, unassigned) [Example 2A] |  |
| 0.369 L/h/kg |  |  |  | C[C@@H]1CN(c2ccc(C(F)(F)F)c3ncccc23)C[C@H](C(=O)NC2CC3CNCC32)O1 (single isomer, unassigned) [Example 49C] | 8% |
| 0.369 L/h/kg |  |  | −36% | C[C@@H]1CN(c2ccc(C(F)(F)F)c3ncccc23)C[C@H](C(=O)NC2CC3CNCC32)O1 (single isomer, unassigned) [Example 49B] | −12% |
